Here are results for 16 molecules from patent publication US9957264B2 (Merck Sharp & Dohme Corp., priority 2013, dated 2018).

Molecules are shown by their SMILES.

In assay [1] the target is JAK2 (recombinant purified GST-tagged catalytic domain) (Homo sapiens (Human), UniProt O60674). The assay can be described thus: Jak Biochemical HTRF Assay (JAK2). To be noted: [ATP] 8.5 μM. A general note: Time-resolved FRET reads energy transfer from a long-lived donor to a nearby acceptor.
The target of assay [2] is JAK1 (recombinant purified GST-tagged catalytic domain) (Homo sapiens (Human), UniProt P23458). The assay can be described thus: Jak Biochemical HTRF Assay (JAK1). The note with it: [ATP] 31.8 μM. The gist of the method: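 Read-out is the 665/615 nm time-resolved FRET ratio from Eu-pY20 antibody and streptavidin-Dylight 650 bound to phosphorylated biotin-peptide. Reactions ran 120 min at room temperature after ATP start. Inhibition normalized to untreated controls gave IC50 via 4-parameter fit.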

The IC50 is the concentration needed to halve the response being measured.

JAK1 (recombinant purified GST-tagged catalytic domain), sequence (P23458 875-1153): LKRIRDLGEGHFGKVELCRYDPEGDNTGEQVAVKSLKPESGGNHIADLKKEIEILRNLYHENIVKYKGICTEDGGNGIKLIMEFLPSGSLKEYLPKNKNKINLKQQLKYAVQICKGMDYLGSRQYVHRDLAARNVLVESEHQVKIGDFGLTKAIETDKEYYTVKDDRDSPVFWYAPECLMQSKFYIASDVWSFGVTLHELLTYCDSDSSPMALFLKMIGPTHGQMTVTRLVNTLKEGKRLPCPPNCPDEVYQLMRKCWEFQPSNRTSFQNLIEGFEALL
JAK2 (recombinant purified GST-tagged catalytic domain), sequence (O60674 849-1124): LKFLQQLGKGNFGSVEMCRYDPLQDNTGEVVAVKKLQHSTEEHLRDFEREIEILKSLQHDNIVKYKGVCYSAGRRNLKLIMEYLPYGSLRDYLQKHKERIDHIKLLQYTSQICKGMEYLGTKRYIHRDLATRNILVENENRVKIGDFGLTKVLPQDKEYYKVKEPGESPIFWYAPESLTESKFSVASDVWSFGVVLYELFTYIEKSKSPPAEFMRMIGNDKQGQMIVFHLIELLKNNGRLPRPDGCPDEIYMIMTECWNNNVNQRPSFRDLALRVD

In the case of `CCC(C)(C)S(=O)(=O)c1ccc(Nc2nn([C@]3(CC#N)CCCOC3)c3cc[nH]c(=O)c23)cc1` [Example 5-196, {(3S)-3-[3-({4-[(1,1-dimethylpropyl)sulfonyl]phenyl}amino)-4-oxo-4,5-dihydro-1H-pyrazolo[4,3-c]pyridin-1-yl]tetrahydro-2H-pyran-3-yl}acetonitrile], the concentration for half-maximal inhibition (IC50) in assay [1] turned out to be 0.33 nM; in assay [2], 0.15 nM.

In the case of `CN(C)S(=O)(=O)c1ccc(Nc2nn(C3(CC#N)CCN(Cc4ncco4)CC3)c3cc[nH]c(=O)c23)cc1` [Example 8-12, 4-({1-[4-(cyanomethyl)-1-(1,3-oxazol-2-ylmethyl)piperidin-4-yl]-4-oxo-4,5-dihydro-1H-pyrazolo[4,3-c]pyridin-3-yl}amino)-N,N-dimethylbenzenesulfonamide], the IC50 is 0.99 nM in assay [1] and 0.26 nM in assay [2].

For the molecule `Cc1cc(Nc2nn([C@]3(CC#N)CCCOC3)c3cc[nH]c(=O)c23)ccc1C(=O)N1CCC(O)(C(F)(F)F)C1` (single isomer, unassigned) [Example 5-114, 2-((S)-3-(3-((4-((S or R)-3-hydroxy-3-(trifluoromethyl)pyrrolidine-1-carbonyl)-3-methylphenyl)amino)-4-oxo-4,5-dihydro-1H-pyrazolo[4,3-c]pyridin-1-yl)tetrahydro-2H-pyran-3-yl)acetonitrile], the concentration for half-maximal inhibition (IC50) in assay [1] was determined as 1.31 nM; in assay [2], 0.33 nM.

For `CC(C)(C)OC(=O)N1CCC(CC#N)(n2nc(Nc3cc(Cn4cccn4)cc(Cn4cccn4)c3)c3c(=O)[nH]ccc32)CC1` [Example 5-60, tert-butyl 4-(3-(3,5-bis((1H-pyrazol-1-yl)methyl)phenylamino)-4-oxo-4,5-dihydropyrazolo[4,3-c]pyridin-1-yl)-4-(cyanomethyl)piperidine-1-carboxylate], the results for the half-inhibitory concentration (IC50) in assay [1] and in assay [2] were 0.46 nM and 1.07 nM, respectively.

For `CN(C)S(=O)(=O)c1ccc(Nc2nn(C3(CC#N)CCOCC3)c3cc[nH]c(=O)c23)cc1` [Example 5-254, 4-((1-(4-(cyanomethyl)tetrahydro-2H-pyran-4-yl)-4-oxo-4,5-dihydro-1H-pyrazolo[4,3-c]pyridin-3-yl)amino)-N,N-dimethylbenzenesulfonamide], the concentration for half-maximal inhibition (IC50) was 1.4 nM in assay [1] and 0.66 nM in assay [2].

For `CC(C)OC(=O)N1CCC(CC#N)(n2nc(Nc3ccnc(F)c3)c3c(=O)[nH]ccc32)CC1` [Example 13-1, isopropyl-4-(cyanomethyl)-4-(3-(2-fluoropyridin-4-ylamino)-4-oxo-4,5-dihydropyrazolo[4,3-c]pyridin-1-yl)piperidine-1-carboxylate], the IC50 in assay [1] amounted to 3.82 nM; in assay [2], 0.22 nM.

Take `CN(C)C(c1ccc(Nc2nn([C@]3(CC#N)CC[C@@H](C(=O)OC(C)(C)C)OC3)c3cc[nH]c(=O)c23)cc1)C(F)(F)F` (single isomer, unassigned) [Example 5-213, (2S,5S)-tert-butyl 5-(cyanomethyl)-5-(3-((4-((R or S)-1-(dimethylamino)-2,2,2-trifluoroethyl)phenyl)amino)-4-oxo-4,5-dihydro-1H-pyrazolo[4,3-c]pyridin-1-yl)tetrahydro-2H-pyran-2-carboxylate]: the concentration for half-maximal inhibition (IC50) in assay [1] stood at 0.29 nM; in assay [2], 0.19 nM.

For the molecule `CCNC(c1ccc(Nc2nn([C@@]3(CC#N)CCCC[C@H]3F)c3cc[nH]c(=O)c23)cc1)C(F)(F)F` (single isomer, unassigned) [Example 5-174, {(1R,2R)-1-[3-({4-[(1R or 1S)-1-(ethylamino)-2,2,2-trifluoroethyl]phenyl}amino)-4-oxo-4,5-dihydro-1H-pyrazolo [4,3-c]pyridin-1-yl]-2-fluorocyclohexyl} acetonitrile], the IC50 in assay [1] and in assay [2] was 0.06 nM in each case.

Take `Cc1cc(Nc2nn(C3(CC#N)CCN(C(=O)OC(C)(C)C)CC3)c3cc[nH]c(=O)c23)ccc1C(=O)N1CCSCC1` [Example 21-14, tert-butyl-4-(cyanomethyl)-4-(3-(3-methyl-4-(thiomorpholine-4-carbonyl)phenylamino)-4-oxo-4,5-dihydropyrazolo[4,3-c]pyridin-1-yl)piperidine-1-carboxylate]: the IC50 in assay [1] came to 0.32 nM; in assay [2], 0.33 nM.

As to `Cc1ccc2cc(Nc3nn([C@]4(CC#N)CCCOC4)c4cc[nH]c(=O)c34)ccc2n1` [Example 5-226, (S)-2-(3-(3-((2-methylquinolin-6-yl)amino)-4-oxo-4,5-dihydro-1H-pyrazolo [4,3-c]pyridin-1-yl)tetrahydro-2H-pyran-3-yl)acetonitrile], the figures for the half-inhibitory concentration (IC50) in assay [1] and in assay [2] were 2.94 nM and 0.11 nM, respectively.

As to `CN(C(C)(C)C)S(=O)(=O)c1ccc(Nc2nn(C3(CC#N)CCCC3)c3cc[nH]c(=O)c23)cc1` [Example 5-134, N-(tert-butyl)-4-((1-(1-(cyanomethyl)cyclopentyl)-4-oxo-4,5-dihydro-1H-pyrazolo[4,3-c]pyridin-3-yl)amino)-N-methylbenzene sulfonamide], the IC50 in assay [1] amounted to 1.07 nM; in assay [2] it was 0.7 nM.

For `CC(C)(C)NC(c1ccc(Nc2nn([C@]3(CC#N)CC[C@@H](C(=O)OC(C)(C)C)OC3)c3cc[nH]c(=O)c23)cc1)C(F)(F)F` (single isomer, unassigned) [Example 5-195, (2S,5S)-tert-butyl 5-(3-((4-((R or S)-1-(tert-butylamino)-2,2,2-trifluoroethyl)phenyl)amino)-4-oxo-4,5-dihydro-1H-pyrazolo [4,3-c]pyridin-1-yl)-5-(cyanomethyl)tetrahydro-2H-pyran-2-carboxylate], the IC50 in assay [1] was 0.68 nM; in assay [2] it was 0.56 nM.

With `CC(F)(F)C(=O)N1CCC(CC#N)(n2nc(Nc3ccc(S(C)(=O)=O)cc3)c3c(=O)[nH]ccc32)CC1` [Example 17, 2-(1-(2,2-difluoropropanoyl)-4-(3-((4-(methylsulfonyl)phenyl)amino)-4-oxo-4,5-dihydro-1H-pyrazolo[4,3-c]pyridin-1-yl)piperidin-4-yl)acetonitrile], the IC50 turned out to be 0.24 nM in assay [1] and 0.1 nM in assay [2].

`CN(C)S(=O)(=O)c1ccc(Nc2nn(C3(CC#N)CCN(C(=O)O[C@@H]4CCOC4)CC3)c3cc[nH]c(=O)c23)cc1` [Example 11-6, (R)-tetrahydrofuran-3-yl 4-(cyanomethyl)-4-(3-((4-(N,N-dimethylsulfamoyl)phenyl)amino)-4-oxo-4,5-dihydro-1H-pyrazolo[4,3-c]pyridin-1-yl)piperidine-1-carboxylate]: the values for the half-maximal inhibitory concentration (IC50) in assay [1] and in assay [2] were 0.47 nM and 0.12 nM, respectively.

On to `COC(=O)N1CCC(CC#N)(n2nc(Nc3ccc4c(c3)CCC4(O)C(F)(F)F)c3c(=O)[nH]ccc32)CC1` (single isomer, unassigned) [Example 5-144, (R or S)-methyl 4-(cyanomethyl)-4-(3-((1-hydroxy-1-(trifluoro-methyl)-2,3-dihydro-1H-inden-5-yl)amino)-4-oxo-4,5-dihydro-1H-pyrazolo[4,3-c]pyridin-1-yl)piperidine-1-carboxylate], for which the figures for the IC50 in assay [1] and in assay [2] were 0.21 nM and 0.1 nM, respectively.

For the molecule `CC(C)NC(C)(C)c1ccc(Nc2nn([C@@]3(CC#N)CCN(C(=O)OC(C)(C)C)C[C@H]3F)c3cc[nH]c(=O)c23)cc1` [Example 5-273, tert-butyl (3R,4R)-4-(cyanomethyl)-3-fluoro-4-{3-[(4-{1-methyl-1-[(1-methylethyl)amino]ethyl}phenyl)amino]-4-oxo-4,5-dihydro-1H-pyrazolo[4,3-c]pyridin-1-yl}piperidine-1-carboxylate], the IC50 in assay [1] stood at 0.14 nM; in assay [2], 0.17 nM.
